Data set [1] has as its system r(CCUG)12 (RNA, repeat) CCUGCCUGCCUGCCUGCCUGCCUGCCUGCCUGCCUGCCUGCCUGCCUG
Briefly: fluorescence titration, sigmoidal fit. The conditions noted are these: 185 mM NaCl; 8 mM Na2HPO4, pH 7.0, 0.1 mM EDTA; range over four repeats 36–87 nM.

Data set [2] concerns r(CGG)12 (RNA, repeat) CGGCGGCGGCGGCGGCGGCGGCGGCGGCGGCGGCGG
In words: fluorescence titration, sigmoidal fit. The conditions noted are these: 185 mM NaCl; 8 mM Na2HPO4, pH 7.0, 0.1 mM EDTA; range over four repeats 36–87 nM.

In data set [3] the test system is GGCC (RNA, hairpin) GGCCGGCCGAAAGGCCGGCC
Briefly: fluorescence titration, sigmoidal fit. The conditions noted are these: 185 mM NaCl, 8 mM Na2HPO4, pH 7.0, 0.1 mM EDTA, RNA titrated.

Data set [4] relates to r(AUUCU)11 (RNA, repeat) AUUCUAUUCUAUUCUAUUCUAUUCUAUUCUAUUCUAUUCUAUUCUAUUCUAUUCU
In words: fluorescence titration, sigmoidal fit. The conditions noted are these: 185 mM NaCl, 8 mM Na2HPO4, pH 7.0, 0.1 mM EDTA.

Data set [5] concerns AAUU (RNA, hairpin) AAUUAAUUAAUUGAAAAAUUAAUUAAUU
Briefly: fluorescence titration, sigmoidal fit. The conditions noted are these: 185 mM NaCl, 8 mM Na2HPO4, pH 7.0, 0.1 mM EDTA, RNA titrated.

Data set [6] concerns r(CUG)12 (RNA, repeat) CUGCUGCUGCUGCUGCUGCUGCUGCUGCUGCUGCUG
In words: fluorescence titration, sigmoidal fit. The conditions noted are these: 185 mM NaCl; 8 mM Na2HPO4, pH 7.0, 0.1 mM EDTA; range over four repeats 36–87 nM.

Data set [7] has as its system AUAU (RNA, hairpin) AUAUAUAUAUAUGAAAAUAUAUAUAUAU
Briefly: fluorescence titration, sigmoidal fit. The conditions noted are these: 185 mM NaCl, 8 mM Na2HPO4, pH 7.0, 0.1 mM EDTA, RNA titrated.

Data set [8] relates to GCGC (RNA, hairpin) GCGCGCGCGAAAGCGCGCGC
Briefly: fluorescence titration, sigmoidal fit. The conditions noted are these: 185 mM NaCl, 8 mM Na2HPO4, pH 7.0, 0.1 mM EDTA, RNA titrated.

Data set [9] has as its system r(AUUCU)11 for TR-FRET (RNA, repeat) AUUCUAUUCUAUUCUAUUCUAUUCUAUUCUAUUCUAUUCUAUUCUAUUCUAUUCU
Briefly: TR-FRET, inhibition of RNA-protein complex. The conditions noted are these: 110 mM KCl, 110 mM NaCl, 2 mM MgCl2, 2 mM CaCl2, 20 mM HEPES pH 7.5, DGCR8Δ 40 nM displaced, RNA 60 nM. A general note: In TR-FRET formats the signal depends on donor and acceptor labels being close together.

The subject of data set [10] is r(AUUCU)11 (RNA, repeat) AUUCUAUUCUAUUCUAUUCUAUUCUAUUCUAUUCUAUUCUAUUCUAUUCUAUUCU
In words: fluorescence titration, lattice (Scatchard-type) fit. The conditions noted are these: 185 mM NaCl, 8 mM Na2HPO4, pH 7.0, 0.1 mM EDTA, microscopic Kd, per site.

For data set [11], the system named is r(AUUCU)11, 5'-32P labelled (RNA, repeat) AUUCUAUUCUAUUCUAUUCUAUUCUAUUCUAUUCUAUUCUAUUCUAUUCUAUUCU
Briefly: filter binding (dot blot). The conditions noted are these: PBS, 1 mM MgCl2; pH 7.4; 50 μg/ml BSA; RNA 100 nM, compound 1 μM.

Another data set deals with T1, DGCR8Δ (UniProt Q8WYQ5).
T1 sequence: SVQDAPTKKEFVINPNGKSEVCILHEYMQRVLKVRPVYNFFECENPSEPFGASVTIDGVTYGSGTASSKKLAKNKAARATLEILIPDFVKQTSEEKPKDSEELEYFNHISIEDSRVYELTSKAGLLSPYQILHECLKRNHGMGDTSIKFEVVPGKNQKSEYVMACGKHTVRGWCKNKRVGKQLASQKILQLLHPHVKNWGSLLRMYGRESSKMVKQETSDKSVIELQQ
In words: EMSA. The conditions noted are these: 2 mM Mg2+, 2 mM Ca2+; EMSA: 20 mM HEPES pH 7.5, 110 mM KCl, 110 mM NaCl, 0.1% BSA, 2 mM MgCl2, 2 mM CaCl2, 0.05% Tween-20, 5 mM DTT, 15 min, room temperature; native 5% PAGE. For orientation: A gel shift assay detects complexes by their altered migration in electrophoresis.

The test system of data set [12] is AAUU (RNA, hairpin) AAUUAAUUAAUUGAAAAAUUAAUUAAUU
In words: fluorescence titration, lattice (Scatchard-type) fit. The conditions noted are these: 185 mM NaCl; 8 mM Na2HPO4, pH 7.0, 0.1 mM EDTA; microscopic Kd; per site.

The test system of data set [13] is AUAU (RNA, hairpin) AUAUAUAUAUAUGAAAAUAUAUAUAUAU
The description is as above. The conditions noted are these: 185 mM NaCl; 8 mM Na2HPO4, pH 7.0, 0.1 mM EDTA; microscopic Kd; per site.

Data set [14] deals with r(AUUCU)11, 5'-32P labelled (RNA, repeat) AUUCUAUUCUAUUCUAUUCUAUUCUAUUCUAUUCUAUUCUAUUCUAUUCUAUUCU
Briefly: RNase V1 protection. The conditions noted are these: 1× RNA Structure Buffer; compound 0-20 μM; protects each AU pair.

Results on five compounds are retold here after PMC4895354 (2016).

One may read the EC50 as the concentration that produces a half-maximal response. A higher EC50 goes with a less potent agent. By Kd is commonly meant a measure of binding affinity in units of concentration. High values mean weaker binding, low ones tighter binding.

Regarding `N=C(N)c1ccc(-c2ccc(-c3ccccc3)o2)cc1`, the binding result in data set [1], in [2], in [4] (range over four repeats 36–87 nM) and in [6] was “yes” in each case. Further, the concentration for a half-maximal effect (EC50) turned out to be 390 ± 20 nM in data set [3] (3 μM compound, Hill 1.4±0.34); 170 ± 10 nM in data set [5] (3 μM compound, Hill 3.1±0.79); 45 ± 1 nM in data set [7] (3 μM compound, Hill 1.5±0.32); 240 ± 10 nM in [8] (3 μM compound, Hill 0.92±0.34).
Take `[N-]=[N+]=NCCCNC(=N)c1ccc(-c2ccc(-c3ccc(C(=N)N)cc3)o2)cc1`: the concentration giving a half-maximal response (EC50) in data set [3] (1 μM compound) was > 6,000 nM; in data set [5] (1 μM compound, Hill 1.0±0.17) it was 45 ± 6 nM; in data set [7] (1 μM compound, Hill 1.0±0.13), 31 ± 4 nM; in [8] (1 μM compound), > 2,000 nM. In addition, the binding entry in data set [9] (~25% inhibition at 1.5 μM) was “yes”. This compound also yielded a dissociation constant Kd in data set [10] (Hill 1.3±0.1) of 375 ± 34 nM.
For `CCCN(CC(=O)N(CCC)CC(=O)N(CC(N)=O)Cc1cn(CCCNC(=N)c2ccc(-c3ccc(-c4ccc(C(=N)N)cc4)o3)cc2)nn1)C(=O)CNCc1cn(CCCNC(=N)c2ccc(-c3ccc(-c4ccc(C(=N)N)cc4)o3)cc2)nn1`, the binding result in data set [11] and in data set [9] (~70% inhibition at 1.5 μM) was “yes” each time. Moreover, the EC50 in data set [4] (without PEG 8000) came to 146 ± 8 nM. Moreover, the Kd in [10] (Hill 1.4±0.4) worked out at 185 ± 1.0 nM.
Consider “AUUCUAUUCUAUUCUAUUCUAUUCUAUUCUAUUCUAUUCUAUUCUAUUCUAUUCU [r(AUUCU)11]”, for which the dissociation constant Kd in the data set with DGCR8Δ was 1600 nM.
On to `N=C(N)c1ccc(-c2ccc(-c3ccc(C(=N)N)cc3)o2)cc1`, for which the EC50 was 8,550±250 nM in [3] (1 μM compound, Hill 0.85±0.08); 170 ± 40 nM in data set [5] (1 μM compound, Hill 1.5±0.24); 190 ± 20 nM in data set [7] (1 μM compound, Hill 1.6±0.28); 6,950±250 nM in data set [8] (1 μM compound, Hill 0.77±0.16). The dissociation constant Kd in [12] was found to be 320 nM; in [13], 210 nM; in data set [10] (Hill 1.7±0.2), 300 ± 47 nM. In [14], the binding result is on record as “yes”.
